Values of other authors as cited in patent publication US20230190748A1, “COMPOSITIONS FOR TREATMENT OF AGED DISEASES” (GERO PTE. LTD., priority 2020, published 2023).

What was measured:
EGFR/ErbB1 = EGFR/ErbB1 (Homo sapiens, UniProt P00533); details: class symbols + to ++++ and √; legend not given
HER2/ErbB2 = HER2/ErbB2 (Homo sapiens, UniProt P04626); details: class symbols + to ++++ and √; legend not given
[1] = white to brownish yellow powder

Sequence of EGFR/ErbB1 (P00533 25-1210): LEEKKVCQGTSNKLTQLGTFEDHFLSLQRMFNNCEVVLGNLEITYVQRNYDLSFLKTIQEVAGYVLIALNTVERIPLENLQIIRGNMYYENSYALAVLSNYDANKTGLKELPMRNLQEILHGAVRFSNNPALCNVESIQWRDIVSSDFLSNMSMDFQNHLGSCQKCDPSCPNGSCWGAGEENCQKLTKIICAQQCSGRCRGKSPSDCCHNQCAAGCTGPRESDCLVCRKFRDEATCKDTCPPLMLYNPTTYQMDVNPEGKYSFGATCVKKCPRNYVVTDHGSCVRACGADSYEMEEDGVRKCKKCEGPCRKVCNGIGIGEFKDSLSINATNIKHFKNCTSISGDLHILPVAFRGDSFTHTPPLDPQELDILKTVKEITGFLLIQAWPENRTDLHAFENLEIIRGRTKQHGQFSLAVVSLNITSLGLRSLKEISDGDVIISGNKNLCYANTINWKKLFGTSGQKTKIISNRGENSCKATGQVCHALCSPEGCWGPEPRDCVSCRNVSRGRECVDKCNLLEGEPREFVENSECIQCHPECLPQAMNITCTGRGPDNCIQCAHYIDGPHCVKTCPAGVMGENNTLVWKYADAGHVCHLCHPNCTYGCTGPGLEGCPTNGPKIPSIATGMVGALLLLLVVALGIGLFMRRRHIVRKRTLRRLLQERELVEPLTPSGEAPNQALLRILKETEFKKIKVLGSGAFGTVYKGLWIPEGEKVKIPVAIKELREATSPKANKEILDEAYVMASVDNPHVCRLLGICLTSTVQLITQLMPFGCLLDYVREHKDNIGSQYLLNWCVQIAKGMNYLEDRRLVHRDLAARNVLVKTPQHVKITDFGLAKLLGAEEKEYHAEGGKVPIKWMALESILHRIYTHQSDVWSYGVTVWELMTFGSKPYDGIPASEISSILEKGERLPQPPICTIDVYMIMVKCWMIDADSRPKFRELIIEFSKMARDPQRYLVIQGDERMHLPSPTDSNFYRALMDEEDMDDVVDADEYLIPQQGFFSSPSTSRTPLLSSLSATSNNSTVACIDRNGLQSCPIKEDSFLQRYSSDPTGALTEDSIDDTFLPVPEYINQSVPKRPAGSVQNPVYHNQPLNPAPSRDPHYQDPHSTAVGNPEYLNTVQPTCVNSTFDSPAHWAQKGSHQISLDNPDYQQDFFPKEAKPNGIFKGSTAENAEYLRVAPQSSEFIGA
Sequence of HER2/ErbB2 (P04626 23-1255): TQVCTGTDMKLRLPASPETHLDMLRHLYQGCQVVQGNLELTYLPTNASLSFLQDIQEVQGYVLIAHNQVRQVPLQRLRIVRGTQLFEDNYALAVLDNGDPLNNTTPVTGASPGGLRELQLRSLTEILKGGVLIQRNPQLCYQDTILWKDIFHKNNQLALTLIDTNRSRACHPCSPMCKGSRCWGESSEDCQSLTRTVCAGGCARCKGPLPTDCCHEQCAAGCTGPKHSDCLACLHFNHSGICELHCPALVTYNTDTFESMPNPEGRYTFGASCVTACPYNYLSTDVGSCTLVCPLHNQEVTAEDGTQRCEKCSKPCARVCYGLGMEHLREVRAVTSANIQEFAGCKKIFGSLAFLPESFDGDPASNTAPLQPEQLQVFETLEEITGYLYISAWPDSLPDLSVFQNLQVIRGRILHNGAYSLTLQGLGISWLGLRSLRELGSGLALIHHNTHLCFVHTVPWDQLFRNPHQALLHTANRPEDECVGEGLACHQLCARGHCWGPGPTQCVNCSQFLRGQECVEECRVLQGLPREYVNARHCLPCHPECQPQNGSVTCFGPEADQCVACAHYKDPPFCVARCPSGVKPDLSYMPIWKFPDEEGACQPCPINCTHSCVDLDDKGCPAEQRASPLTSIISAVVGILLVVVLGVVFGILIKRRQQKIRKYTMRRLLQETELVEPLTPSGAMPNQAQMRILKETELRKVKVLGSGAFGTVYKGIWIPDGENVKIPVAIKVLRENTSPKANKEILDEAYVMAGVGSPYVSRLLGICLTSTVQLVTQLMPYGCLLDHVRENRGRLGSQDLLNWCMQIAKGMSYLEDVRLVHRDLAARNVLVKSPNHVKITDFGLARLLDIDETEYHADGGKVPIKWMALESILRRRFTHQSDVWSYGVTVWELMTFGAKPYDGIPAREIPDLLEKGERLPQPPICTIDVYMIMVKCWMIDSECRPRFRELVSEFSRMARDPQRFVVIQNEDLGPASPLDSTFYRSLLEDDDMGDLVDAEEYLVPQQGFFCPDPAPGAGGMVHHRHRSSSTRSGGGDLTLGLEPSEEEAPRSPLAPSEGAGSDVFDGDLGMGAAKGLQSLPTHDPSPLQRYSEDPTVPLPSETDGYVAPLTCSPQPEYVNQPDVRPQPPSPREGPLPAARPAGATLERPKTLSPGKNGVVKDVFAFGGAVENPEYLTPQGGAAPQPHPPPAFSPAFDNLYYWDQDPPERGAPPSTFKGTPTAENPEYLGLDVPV

C=CC(=O)Nc1cccc(Oc2nc(Nc3ccc(N4CCN(C)CC4)cc3)nc3ccsc23)c1 [Olmutinib (HM61713, BI 1482694), Olmutinib]
EGFR/ErbB1 (EGFR/ErbB1): √

Cc1cc(Nc2ncnc3ccc(-c4ccc(CNCCS(C)(=O)=O)o4)cc23)ccc1Oc1ccn2ncnc2c1 [HER2-Inhibitor-1]
HER2/ErbB2 (HER2/ErbB2): √

O=C(/C=C/c1ccc(O)c(O)c1)c1ccc(O)cc1O [Butein]
EGFR/ErbB1 (EGFR/ErbB1): √

C=CC(=O)Nc1cccc(Sc2nc(Nc3ccc(N4CCN(C)CC4)cc3)ncc2Cl)c1 [WZ8040]
EGFR/ErbB1 (EGFR/ErbB1): √

Cc1cc(O)c2c(c1)C(=O)c1cccc(O)c1C2=O [Chrysophanic Acid]
EGFR/ErbB1 (EGFR/ErbB1): √

CN(C)C/C=C/C(=O)Nc1cc2c(Nc3ccc(F)c(Cl)c3)ncnc2cc1O[C@H]1CCOC1.O=C(O)/C=C\C(=O)O.O=C(O)/C=C\C(=O)O [Afatinib (BIBW2992) Dimaleate, 2-butenamide, N-[4-[(3-chloro-4-fluorophenyl)amino] 7-[[(3S)-tetrahydro-3-furanyl]oxy]-6-quinazolinyl]-4-(dimethylamino)-,(2E)-, (2Z)-2-butenedioate (1:2)]
solubility in water [1]: water soluble

C=CC(=O)N1CC[C@@H](Oc2nc(Nc3ccc(N4CCC(N5CCN(C)CC5)CC4)cc3)c(C(N)=O)nc2CC)C1 [Naquotinib(ASP8273), Naquotinib]
EGFR/ErbB1 (EGFR/ErbB1): √
